As usually defined, the IC50 is the concentration at which inhibition is half-maximal. The term bioavailability denotes dose-corrected exposure relative to a reference, in per cent. A lower bioavailability goes with little systemic uptake.

For data set [1], the system named is MC-38. The experiment in a line: Antiproliferative activity against mouse MC38 cells measured after 48 hrs incubation by MTT assay relative to control. The settings on record: MC-38, 48 h. In kind it is functional, cell-based. (In general: Formazan colour is commonly taken as a measure of viable cells.)
A further data set has as its system B16-F10. As to the kind of experiment: Antiproliferative activity against mouse B16-F10 cells at 1 uM measured after 48 hrs incubation by MTT assay relative to control.
The test system of data set [2] is MC-38. As to the kind of experiment: Effect on acetylated SMC3 in mouse MC38 cells at 0.1 to 2 uM measured after 24 hrs incubation by Western blot analysis. Format: functional, cell-based. The settings on record: dose 0.1-2 µM. For orientation: A western blot detects proteins with antibodies after separation by electrophoresis.
Data set [3] relates to MC-38. As to the kind of experiment: Increase in acetylated H3 in mouse MC38 cells at 0.1 to 2 uM measured after 24 hrs incubation by Western blot analysis. The settings on record: dose 0.1-2 µM. In kind it is functional, cell-based.
Data set [4] is described as follows: Antiproliferative activity against […] cells measured after 48 hrs incubation by MTT assay relative to control. The settings on record: Mus musculus, Lung cancer cell line. Format: functional, cell-based.
Data set [5] deals with MC-38. As to the kind of experiment: Effect on acetylated alpha-tubulin in mouse MC38 cells at 0.1 to 2 uM measured after 24 hrs incubation by Western blot analysis. Format: functional, cell-based. The settings on record: dose 0.1-2 µM.
The test system of a further data set is B16-F10 (Mus musculus). The experiment in a line: Antiproliferative activity against mouse B16-F10 cells measured after 48 hrs incubation by MTT assay relative to control. The settings on record: B16-F10, 48 h.
The next data set relates to HeLa. As to the kind of experiment: Antiproliferative activity against human HeLa cells measured after 48 hrs incubation by MTT assay relative to control. Format: functional, cell-based.
Another data set has as its system HepG2. As to the kind of experiment: Antiproliferative activity against human HepG2 cells measured after 48 hrs incubation by MTT assay relative to control. In kind it is functional, cell-based. The settings on record: HepG2, 48 h.
Another data set deals with MCF7. The experiment in a line: Antiproliferative activity against human MCF7 cells measured after 48 hrs incubation by MTT assay relative to control. Format: functional, cell-based. The settings on record: MCF7, 48 h.
Data set [6] has as its system Mus musculus. The experiment in a line: Immunomodulatory effect in C57BL/6 mouse allografted with mouse MC38 cells assessed as increase in tumor infiltrating lymphocytes by measuring increase in CD3+ CD4+ cells at 50 mg/kg, po treated 5 days after cell inoculation 19 th day by flow cytometry analysis. In kind it is functional, organism-based. The settings on record: time 15.0 day. A general note: A flow cytometer gives signals particle by particle.

Data set [7] relates to Mus musculus. The experiment in a line: Induction of PD-L1 expression in tumor in C57BL/6 mouse allografted with mouse MC38 cells in presence of NP19 PD-L1 inhibitor at 50 mg/kg, po treated 5 days after cell inoculation 19 th day by immunofluorescence analysis. In kind it is functional, organism-based. The settings on record: time 15.0 day.
In data set [8] the test system is Mus musculus. The experiment in a line: Immunomodulatory effect in C57BL/6 mouse allografted mouse MC38 cells assessed as increase in tumor infiltrating lymphocytes by measuring increase in CD8+ T […] cells in tumor at 50 mg/kg, po treated 5 days after cell inoculation 19 th day by flow cytometry analysis (reference value: 2.32%). Format: functional. The settings on record: time 15 day.

Data set [9] deals with Mus musculus. As to the kind of experiment: Immunomodulatory effect in C57BL/6 mouse allografted mouse MC38 cells assessed as increase in tumor infiltrating lymphocytes by measuring increase in CD4+ T helper cells in mouse spleen at 50 mg/kg, po treated 5 days after cell inoculation 19 th day by flow cytometry analysis (reference value: 10.8%). Format: functional. The settings on record: time 15 day.

The subject of data set [10] is MC-38. As to the kind of experiment: In vivo antitumor activity against mouse MC38 cells allografted in C57BL/6 mouse assessed as increase in Tunel-positive cells in tumor at 50 mg/kg, po treated 5 days after cell inoculation 19 th day by immunofluorescence analysis. Format: functional, organism-based. The settings on record: time 15.0 day.
Data set [11] concerns Mus musculus. As to the kind of experiment: Immunomodulatory effect in C57BL/6 mouse allografted mouse MC38 cells assessed as increase in tumor infiltrating lymphocytes by measuring increase in […] in mouse blood at 50 mg/kg, po treated 5 days after cell inoculation 19 th day by flow cytometry analysis (reference value: 0.35%). In kind it is functional. The settings on record: time 15 day.

In data set [12] the test system is Mus musculus. As to the kind of experiment: Immunomodulatory effect in C57BL/6 mouse allografted mouse MC38 cells assessed as increase in tumor infiltrating lymphocytes by measuring increase in CD4+ T helper cells in mouse blood at 50 mg/kg, po treated 5 days after cell inoculation 19 th day by flow cytometry analysis (reference value: 0.27%). The settings on record: time 15 day. In kind it is functional.

In data set [13] the test system is Mus musculus. As to the kind of experiment: Immunomodulatory effect in C57BL/6 mouse allografted mouse MC38 cells assessed as increase in tumor infiltrating lymphocytes by measuring increase in CD4+ T helper cells in mouse lymph nodes at 50 mg/kg, po treated 5 days after cell inoculation 19 th day by flow cytometry analysis (reference value: 15.5%). In kind it is functional. The settings on record: time 15 day.

A short description of data set [14]: Oral bioavailability in C57BL/6 mouse allografted with mouse MC38 cells at 50 mg/kg. In kind it is ADME, organism-based. The settings on record: in vivo.
The test system of data set [15] is MC-38. The experiment in a line: In vivo antitumor activity against mouse MC38 cells allografted in C57BL/6 mouse assessed as tumor growth inhibition at 50 mg/kg, po treated 5 days after cell inoculation 19 th day relative to control. In kind it is functional. The settings on record: MC-38, 360 h, time 15 day, read-out: TGI.
Data set [16] has as its system MC-38. As to the kind of experiment: In vivo antitumor activity against mouse MC38 cells allografted in C57BL/6 mouse assessed as decrease in […] positive cells in tumor at 50 mg/kg, po treated 5 days after cell inoculation 19 th day by immunofluorescence analysis. The settings on record: time 15.0 day. In kind it is functional, organism-based.
Data set [17] deals with Mus musculus. As to the kind of experiment: Immunomodulatory effect in C57BL/6 mouse allografted mouse MC38 cells assessed as increase in tumor infiltrating lymphocytes by measuring increase in […] in mouse spleen at 50 mg/kg, po treated 5 days after cell inoculation 19 th day by flow cytometry analysis (reference value: 13.6%). In kind it is functional. The settings on record: time 15 day.

Data set [18] deals with Mus musculus. The experiment in a line: Immunomodulatory effect in C57BL/6 mouse allografted mouse MC38 cells assessed as increase in tumor infiltrating lymphocytes by measuring increase in CD4+ T helper cells in tumor at 50 mg/kg, po treated 5 days after cell inoculation 19 th day by flow cytometry analysis (reference value: 2.57%). In kind it is functional. The settings on record: time 15 day.

The test system of data set [19] is Mus musculus. The experiment in a line: Immunomodulatory effect in C57BL/6 mouse allografted mouse MC38 cells assessed as increase in tumor infiltrating lymphocytes by measuring increase in […] in mouse lymph nodes at 50 mg/kg, po treated 5 days after cell inoculation 19 th day by flow cytometry analysis (reference value: 20.3%). The settings on record: time 15 day. In kind it is functional.

Activity calls are given as the source filed them. The rule behind the calls is not given here.

`Nc1ccccc1NC(=O)c1ccc(CNC(=O)OCc2cccnc2)cc1` [ENTINOSTAT]: the IC50 with MC-38 [1] is above 10 µM; in data set [4], 2870 nM; in the data set on B16-F10 (Mus musculus), 9.36 µM; with HeLa it was above 10 µM; in the data set with HepG2 it was 4.08 µM; in the data set with MCF7, 8.99 µM. In the data set on B16-F10, the Activity is recorded as 16.1%. The outcome in the data set with MC-38 [2] and in the data set on MC-38 [5] was inactive. The outcome in the data set with MC-38 [3] was Active.

For the compound `Cc1c(COc2cc(OCc3cccc(C#N)c3)c(CNC(C)(C)C(=O)O)cc2Cl)cccc1-c1ccccc1`, the result in the data set with Mus musculus [6], in the data set with Mus musculus [7] and with MC-38 [16] was inactive. The Activity with Mus musculus [8] is 3.18%; in the data set with Mus musculus [9], 10.2%; with Mus musculus [11], 0.42%; with Mus musculus [12] it was 0.38%; with Mus musculus [13], 11.2%; in the data set on Mus musculus [17], 12.1%. Moreover, the Activity was 2.69% in the data set on Mus musculus [18] and 18.9% with Mus musculus [19]. Further, in the data set with MC-38 [10], the outcome was Active. This compound returned a bioavailability in [14] below 5%. Besides, the inhibition in vivo at 50 mg/kg in the data set on MC-38 [15] was 8%.

The record behind these values is ChEMBL document CHEMBL6121046, “Discovery of Novel Hydrazide-Based HDAC3 Inhibitors as Epigenetic Immunomodulators for Cancer Immunotherapy” (J Med Chem, 2025).
